How the values were obtained:
Type in all cases: cell-based
[1] = tested on: bone marrow-derived human mesenchymal stem cells (hMSCs); experiment: Viability of hMSCs after preservation in test isotonic liquid, trypan blue staining method; details: for effect of suppressing the decrease in cell viability (screening of 93 saccharides): saccharide 87.5 mM in Lactec injection, compared with 88 mM trehalose or lactated Ringer's solution; for Cell viability (%) (Mean ± Standard deviation [SD]): n=3
Protocol: [1] 4×10^5 hMSCs were added to a 75-cm^2 flask and cultured at 37° C. in a 5% CO2 incubator in the presence of a medium. The state of the cells was observed under a microscope, and the cells were cultured until about 80% confluent. The medium was removed, and the hMSCs were rinsed with 8-mL PBS(−). The PBS(−) was removed, and 3.75-mL trypsin-EDTA (manufactured by Lonza) was added thereto, and the mixture was left standing at room temperature for 5 minutes. The hMSCs were observed under a microscope and slowly shaken until about 90% of them were exfoliated. 3.75 mL of medium was added thereto, to stop the trypsin reaction, and the hMSCs were collected by pipetting and transferred to a 50-mL centrifuge tube. […] Centrifugation was performed at 600×g and 22° C. for 5 minutes. The supernatant (medium) was removed, 1.5 mL of PBS(−) was added thereto, and the precipitate (hMSCs) was suspended. The number of cells was measured and adjusted with PBS(−) to 5×10^3 cells/mL, to prepare PBS containing hMSCs. [Method for Preserving hMSCs in Each Test Isotonic Liquid]
[1] 0.5 mL of the PBS containing hMSCs prepared was dispensed into each tube and centrifuged (at 600×g for 5 minutes). […] [Analysis of Viability of hMSCs by Trypan Blue Staining Method]
[1] […] Thereafter, 20 μL of a trypan blue staining solution (manufactured by Gibco) was mixed thereto. As a comparative control, 20 μL (equivalent to 1×10^4 cells) was collected from each PBS containing hMSCs before suspension in each test isotonic liquid (before preservation at 4° C.) and transferred to a tube. Thereafter, 20 μL of a trypan blue staining solution was mixed thereto. The total number of cells and the number of trypan blue-positive cells (dead cells) were measured under a microscope using OneCell Counter (manufactured by Bio Medical Science), to calculate the percentage of trypan blue-negative cells to the total number of cells, that is, the cell viability.

rat hepatocytes = experiment: Viability of rat hepatocytes after preservation in test isotonic liquid, trypan blue staining method; details: rat hepatocytes preserved at 4° C. for 24 hours; n=6; Pre 70.8±3.32
Protocol: A stock tube of rat hepatocytes was taken out of a liquid nitrogen tank and thawed in a constant temperature bath at 37° C. […] Immediately after thawing, it was allowed to stand on ice and transferred to a 50-mL centrifuge tube. […] 25 mL of hepatocyte wash medium (which will be hereinafter referred to as “wash medium”) (manufactured by GIBCO) cooled with ice was added dropwise. […] Centrifugation was performed at 50×g and 4° C. for 3 minutes. […] The supernatant (wash medium) was removed, 6 mL of wash medium was added thereto, and the precipitate (rat hepatocytes) was suspended by pipetting 2 to 3 times. […] The number of cells was measured and adjusted with a wash medium to 5×10^3 cells/mL, to prepare a wash medium containing rat hepatocytes.
0.5 mL of the wash medium containing rat hepatocytes prepared was dispensed into each tube and centrifuged (at 50×g and 4° C. for 3 minutes). […] The supernatant (wash medium) was removed, and the precipitate (rat hepatocytes) was suspended in 0.5 mL of each test isotonic liquid and preserved at 4° C. for 24 hours.

[2] = tested on: bone marrow-derived human mesenchymal stem cells (hMSCs); experiment: Cell aggregation level of hMSCs after preservation, phase contrast microscope; details: hMSCs preserved at 25° C. for 48 hours; 88 mM acarbose in Lactec injection
Protocol: The hMSCs were preserved in each test isotonic liquid at 25° C. for 48 hours according to the method described in Example 1. Each test isotonic liquid containing the hMSCs after preservation was partially collected, and the presence or absence of cell aggregates in which three or more cells gather together was observed under a phase contrast microscope.

CD8-positive T cells = experiment: Viability of expansion-cultured CD8-positive T cells after preservation, trypan blue staining method; details: CD8-positive T cells preserved at 5° C. for 24 hours; n=3
Protocol: Cryopreserved CD8-positive T cells were thawed, then washed with a lymphocyte culture medium (LGM3, manufactured by Lonza), and incubated in the medium for about 1 hour (at 37° C. in 5% CO2). […] The medium containing the CD8-positive T cells was separated and centrifuged (at 300×g and room temperature for 10 minutes). […] The supernatant was removed, and the cells were suspended in TLY CULTURE kit 25 (manufactured by GC LYMPHOTEC Inc.) and the CD8-positive T cells were expansion-cultured under conditions of 37° C. and 5% CO2 for 7 days.
CD8-positive T cells (with a cell concentration of about 1.1×10^6 cells/5 mL) expansion-cultured for 7 days were washed with Lactec injection containing 88 mM trehalose, dispensed in Stemfull tube (manufactured by Sumitomo Bakelite Co., Ltd.), and then centrifuged (at 300×g and room temperature for 10 minutes). […] The supernatant was removed, and the precipitate (CD8-positive T cells) was suspended in 3 kinds of test isotonic liquids (Lactec injection containing 88 mM acarbose, Lactec injection containing 88 mM trehalose, and Lactec injection) and then preserved at 5° C. for 24 hours. […] After preservation for 24 hours, the cell viability was measured according to the method described in procedure [2] above.

[3] = hMSCs preserved at 4° C. for 3 days
[4] = hMSCs preserved at 4° C. for 2 days, Pre 94.7±2.1
[5] = hMSCs preserved at 4° C. for 3 days, α-glucosidase inhibitors 175 mM, Pre 98.5±0.6
[6] = hMSCs preserved at 5° C. for 4 days, Pre 93.7±2.0%

Compound	effect of suppressing the decrease in cell viability (screening of 93 saccharides) [1, 3]	Cell viability (%) (Mean ± Standard deviation [SD]) [1, 4]	also measured
CC1(C)O[C@H](CO)[C@@H](CO)O1 [(−)-2,3-O-iso propylidene-D-threitol]	cell viability decreased	–	–
O=C[C@H](O)[C@@H](O)[C@@H](O)[C@H](O)C(=O)O [D-galacturonic acid]	cell viability decreased	–	–
O=C(O)[C@H](O)[C@@H](O)[C@H](O[C@@H]1O[C@H](CO)[C@H](O)[C@H](O)[C@H]1O)[C@H](O)CO [D-lactobionic acid]	cell viability decreased	–	–
N[C@@H]1C(O)O[C@H](CO)[C@@H](O)[C@@H]1O (stereo partly drawn) [D-mannosamine]	cell viability decreased	–	–
C[C@H]1O[C@H](O[C@H]2[C@H](O)[C@@H](O)[C@@H](O[C@H]3[C@H](O)[C@@H](O)C(O)O[C@@H]3CO)O[C@@H]2CO)[C@H](O)[C@@H](O)[C@@H]1N[C@H]1C=C(CO)[C@@H](O)[C@H](O)[C@H]1O (stereo partly shown) [acarbose]	higher effect of suppressing the decrease in cell viability than trehalose	cell viability increased	Cell viability (%) (Mean ± Standard deviation [SD]) [1, 5]: cell viability increased; Cell viability (%) (Mean ± Standard deviation [SD]) (rat hepatocytes): cell viability significantly increased; presence or absence of cell aggregates (three or more cells) [2]: almost no cell aggregates were observed; Cell viability (%) (Mean ± Standard deviation [SD]) 24 hours (CD8-positive T cells): cell viability significantly increased
OC[C@H]1O[C@H](O[C@H]2[C@H](O)[C@@H](O)[C@@H](O[C@H]3[C@H](O)[C@@H](O)[C@@H](O[C@H]4[C@H](O)[C@@H](O)C(O)O[C@@H]4CO)O[C@@H]3CO)O[C@@H]2CO)[C@H](O)[C@@H](O)[C@@H]1O (stereo partly shown) [maltotetraose]	–	such an increase in cell viability was not observed	–
OCCN1C[C@H](O)[C@@H](O)[C@H](O)[C@H]1CO [miglitol]	–	–	Cell viability (%) (Mean ± Standard deviation [SD]) [1, 5]: cell viability was almost unchanged
OC[C@H]1O[C@@](CO)(OC[C@@]2(OC[C@@]3(O[C@H]4O[C@H](CO)[C@@H](O)[C@H](O)[C@H]4O)O[C@H](CO)[C@@H](O)[C@@H]3O)O[C@H](CO)[C@@H](O)[C@@H]2O)[C@@H](O)[C@@H]1O [nystose]	–	such an increase in cell viability was not observed	–
OC[C@H]1O[C@H](OC[C@H]2O[C@H](OC[C@H]3O[C@H](O[C@]4(CO)O[C@H](CO)[C@@H](O)[C@@H]4O)[C@H](O)[C@@H](O)[C@@H]3O)[C@H](O)[C@@H](O)[C@H]2O)[C@H](O)[C@@H](O)[C@H]1O [stachyose]	higher effect of suppressing the decrease in cell viability than trehalose	cell viability increased	Cell viability (%) (Mean ± Standard deviation [SD]) [1, 6]: cell viability significantly increased at any concentration
OC[C@H]1O[C@H](O[C@H]2O[C@H](CO)[C@@H](O)[C@H](O)[C@H]2O)[C@H](O)[C@@H](O)[C@@H]1O [trehalose]	–	–	Cell viability (%) (Mean ± Standard deviation [SD]) [1, 6]: cell viability increased; Cell viability (%) (Mean ± Standard deviation [SD]) 24 hours (CD8-positive T cells): cell viability increased
OCC(CO)N[C@H]1C[C@](O)(CO)[C@@H](O)[C@H](O)[C@H]1O [voglibose]	–	–	Cell viability (%) (Mean ± Standard deviation [SD]) [1, 5]: cell viability was almost unchanged

Reference: patent US20210345602A1, “MAMMAL CELL PRESERVING SOLUTION CONTAINING ACARBOSE OR STACHYOSE” (OTSUKA PHARMACEUTICAL FACTORY, INC., priority 2018, published 2021)
